Test results reported in patent US20240383911A1, “AZAINDAZOLE MACROCYCLE COMPOUNDS AND USES THEREOF” (BROADENBIO CO., LTD, priority 2021, published 2024).

Target: T1, FLT3 (Homo sapiens, UniProt P36888)
T1 sequence (P36888 27-993): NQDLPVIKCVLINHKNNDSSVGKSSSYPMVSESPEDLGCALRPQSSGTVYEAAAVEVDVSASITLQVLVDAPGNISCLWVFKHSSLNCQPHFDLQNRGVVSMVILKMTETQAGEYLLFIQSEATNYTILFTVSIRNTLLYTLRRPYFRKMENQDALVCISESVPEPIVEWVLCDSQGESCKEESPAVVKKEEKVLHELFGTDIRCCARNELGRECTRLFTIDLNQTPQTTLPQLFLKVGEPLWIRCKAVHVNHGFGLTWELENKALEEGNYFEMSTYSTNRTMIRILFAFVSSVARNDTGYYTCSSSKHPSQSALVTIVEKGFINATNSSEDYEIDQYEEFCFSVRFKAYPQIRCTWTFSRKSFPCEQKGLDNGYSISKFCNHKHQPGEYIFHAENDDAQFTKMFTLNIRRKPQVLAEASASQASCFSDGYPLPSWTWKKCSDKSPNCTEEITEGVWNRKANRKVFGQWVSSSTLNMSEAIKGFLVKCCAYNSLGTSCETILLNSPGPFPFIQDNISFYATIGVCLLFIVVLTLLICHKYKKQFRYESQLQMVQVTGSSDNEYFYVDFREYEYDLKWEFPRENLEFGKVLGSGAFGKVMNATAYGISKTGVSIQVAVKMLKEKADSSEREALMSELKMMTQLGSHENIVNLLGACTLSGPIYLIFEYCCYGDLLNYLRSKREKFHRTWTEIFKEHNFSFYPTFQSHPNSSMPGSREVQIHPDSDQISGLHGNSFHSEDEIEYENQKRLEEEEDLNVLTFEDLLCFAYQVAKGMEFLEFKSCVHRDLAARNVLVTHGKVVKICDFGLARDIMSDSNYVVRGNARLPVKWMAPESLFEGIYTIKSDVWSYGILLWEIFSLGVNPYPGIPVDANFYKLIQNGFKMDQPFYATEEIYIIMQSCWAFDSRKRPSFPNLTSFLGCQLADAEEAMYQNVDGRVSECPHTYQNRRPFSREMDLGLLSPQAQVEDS
Experiment: FLT3 kinase activity inhibition test (HTRF)
Type: biochemical
Conditions: read-out: IC50, inhibitory effects on FLT3 kinase activity
Description: Tested compounds: compounds prepared in the Examples of this invention.
Prepare compound stock solution: dissolve the test compound in 100% DMSO to make a 10 mM stock solution. Dilute the stock solution of the test compound by 5 times with 100% DMSO, make a 4-fold equal dilution in a 96-well dilution plate, add 1 μL of the compound to 39 μL of kinase reaction buffer (1×kinase buffer, 5 mM MgCl2, 1 mM DTT), and shake on a microplate shaker for 20 minutes. 4×Positive control (4 μL of positive compound solution of the starting concentration, add 196 μL of kinase buffer) and 4×negative control (4 μL of 100% DMSO, add 196 μL of kinase buffer).
(1) Use 1×kinase reaction buffer to prepare 2.5×FLT3 kinase solution (160 μM), transfer 2 μL of the kinase solution to the 384 reaction plate, and add 1 μL of the test compound solution of gradient concentration to the 384 reaction plate (Greiner, Cat #784075), centrifuge for 1 minute (1000 rpm), and incubate at 25° C. for 10 minutes.
(2) Use 1×kinase reaction buffer to prepare 2.5×TK-substrate-biotin (2.5 μM) and 2.5×ATP (2.5 μM), mix well, and add 2 μL of the TK-substrate-biotin/ATP solution to the 384 reaction plate, centrifuge for 30 seconds (1000 rpm), and incubate at 25° C. for 40 minutes.
(3) Use HTRF detection buffer to prepare 2×Sa-XL 665 (125 nM) and 1×TK-antibody-Cryptate. Add 5 μL of a mixture of Sa-XL 665 and TK-antibody-Cryptate solutions to each well, centrifuge for 30 seconds (1000 rpm), and react at room temperature for 1 hour.
(4) The fluorescence signal is read using a Biotek multi-function plate reader, and the IC50 (half inhibitory concentration) of the compound is obtained using a four-coefficient nonlinear fitting formula.

| IC50 [nM] | Structure (SMILES) |
| --- | --- |
| ≤ 5 | CN1CCN(c2ccc3cc2OCCOCc2cccc(F)c2-c2cc4c-3n[nH]c4cn2)CC1 [Compound 9, 16-fluoro-5-(4-methylpiperazin-1-yl)-7,10-dioxa-19,22,23-triazapentacyclo[16.5.2.1^2,6.0^12,17.0^21,24]hexacosa-1(23),2(26),3,5,12,14,16,18,20,24-decaene] |
| 5 to 50 | CN1CCN(c2ncc3cc2OCCCOc2cccc(F)c2-c2cc4c-3n[nH]c4cn2)CC1 [Compound 3, 16-fluoro-5-(4-methylpiperazin-1-yl)-7,11-dioxa-4,19,22,23-tetraazapentacyclo[16.5.2.1^2,6.0^12,17.0^21,24]hexacosa-1(23),2(26),3,5,12,14,16,18,20,24-decaene] |
| ≤ 5 | CN1CCN(c2ccc3cc2OCCCOc2cccc(F)c2-c2cc4c-3n[nH]c4cn2)CC1 [Compound 6, 16-fluoro-5-(4-methylpiperazin-1-yl)-7,11-dioxa-19,22,23-triazapentacyclo[16.5.2.1^2,6.0^12,17.0^21,24]hexacosa-1(23),2(26),3,5,12,14,16,18,20,24-decaene] |
